Usually IC50 stands for the midpoint of a concentration-inhibition curve.

From US12018023B2 (NERVIANO MEDICAL SCIENCES S.R.L., priority 2018, dated 2024) come the findings set out here.

For experiment [1], the target named is T1, IDH1^R132H homodimer enzyme (Homo sapiens, UniProt O75874, R132H).
T1 construct: purchased not specified
The experiment can be described thus: NADPH depletion assay, IDH1 R132H. It is filed as biochemical. On the procedure: (§1) IDH mutated enzyme activity converting alpha-ketoglutarate to 2-hydroxyglutaric acid is measured using a NADPH depletion assay. In the assay the remaining cofactor is measured at the end of the reaction with the addition of a catalytic excess of diaphorase and resazurin, to generate a fluorescent signal in proportion to the amount of NADPH remaining. IDH1 WT enzyme as well as mutated isoforms IDH1^R132H, IDH1^R132C, and IDH^2R172K enzymes are commercially available proteins (see e.g. Sino Biological, Abcam, Active Motif or Creative BioMart).
(§2) IDH1^R132H homodimer enzyme are diluted to 8 nM, in 10 μL of Assay Buffer (150 mM NaCl, 50 mM Tris-HCl pH 7.6, 10 mM MgCl2, 0.001% Triton X-100, 4 mM β-mercaptoethanol); 0.2 uL of test compound, previously serially diluted 1 to 3, >10 experimental points from 1 mM in DMSO, is added and the mixture is incubated for 15 minutes at room temperature. The reaction is started with the addition of 10 μL of Substrate Mix (12 uM NADPH, 3.4 mM alpha-ketoglutarate in Assay Buffer) and the mixture is incubated for 60 minutes at room temperature. The reaction is terminated with the addition of 5 μl of Detection Buffer (100 μg/mL diaphorase, 30 μM resazurin, in IX Assay Buffer), and is incubated for 15 minute before reading on a ViewLux as platereader at Ex544/Em590.

In another experiment the target is T2, IDH1^R132C (Homo sapiens, UniProt O75874, R132C).
T2 construct: purchased not specified
T2 sequence (O75874 whole entry R132C): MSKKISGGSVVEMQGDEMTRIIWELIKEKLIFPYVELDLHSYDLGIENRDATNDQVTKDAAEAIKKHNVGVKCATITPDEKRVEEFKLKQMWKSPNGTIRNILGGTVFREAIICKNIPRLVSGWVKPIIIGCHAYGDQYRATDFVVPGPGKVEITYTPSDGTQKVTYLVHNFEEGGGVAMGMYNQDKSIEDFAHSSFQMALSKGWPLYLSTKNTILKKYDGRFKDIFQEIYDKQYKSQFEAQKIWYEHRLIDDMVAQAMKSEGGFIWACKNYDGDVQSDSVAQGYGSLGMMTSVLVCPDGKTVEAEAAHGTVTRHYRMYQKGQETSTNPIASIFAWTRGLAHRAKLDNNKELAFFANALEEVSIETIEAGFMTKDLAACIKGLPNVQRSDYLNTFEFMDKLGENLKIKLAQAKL
Nature of the experiment: NADPH depletion assay, IDH1 R132C. It is filed as biochemical. On the procedure: as §1, §2
Compounds are assayed for their activity against IDH1^R132C following the same assay as above with the following modifications: IDH1^R132C and alpha-ketoglutarate final concentrations in the Assay Buffer is 2 nM and 0.14 mM, respectively.

The structures appear in SMILES notation.

T1 sequence (O75874 whole entry R132H): as the sequence (O75874 whole entry R132C) above, with C132H counted along it

With `COC(=O)c1ccc([C@H](C)Nc2ncc3ccc(=O)n(Cc4ccccc4)c3n2)cc1` [cpd 1, Methyl 4-{(1S)-1-[(8-benzyl-7-oxo-pyrido[2,3-d]pyrimidin-2-yl)amino]ethyl}benzoate], the figures for the IC50 (in experiment [1]; at IDH1^R132C) were 1830 nM and 622 nM, respectively.

In the case of `CC(C)[C@H](C)n1c(=O)ccc2cnc(N[C@@H](C)c3ccc(-c4ccnc(F)c4)cn3)nc21` [cpd 197, 2-{[(1S)-1-(2′-fluoro-3,4′-bipyridin-6-yl)ethyl]amino}-8-[(2S)-3-methylbutan-2-yl]pyrido[2,3-d]pyrimidin-7(8H)-one], the IC50 in experiment [1] came out at 2340 nM; on IDH1^R132C, 405 nM.

With `CC[C@H](Nc1ncc2ccc(=O)n(CC(C)(C)C)c2n1)c1ccccc1` [cpd 70, 8-(2,2-dimethylpropyl)-2-{[(1S)-1-phenylpropyl]amino}pyrido[2,3-d]pyrimidin-7(8H)-one], the results for the IC50 (in experiment [1]; against IDH1^R132C) were 478 nM and 177 nM, respectively.

As for `C[C@H](Nc1ncc2ccc(=O)n(CC(C)(C)C)c2n1)c1ccc(C(=O)NC2CCCC2)cc1` [cpd 80, N-cyclopentyl-4-[(1S)-1-{[8-(2,2-dimethylpropyl)-7-oxo-pyrido[2,3-d]pyrimidin-2-yl]amino}ethyl]benzamide], the IC50 in experiment [1] was determined as 444 nM; on IDH1^R132C it was 282 nM.

Take `CC(C)(C)Cn1c(=O)ccc2cnc(NC3(c4ccccc4)CCC3)nc21` [cpd 43, 8-(2,2-dimethylpropyl)-2-[(1-phenylcyclobutyl)amino]pyrido[2,3-d]pyrimidin-7(8H)-one]: the IC50 in experiment [1] stood at 1640 nM; on IDH1^R132C, 1050 nM.

For the molecule `COc1ccc(Cn2c(=O)ccc3cnc(N[C@@H](C)c4ccc(Cl)cc4)nc32)cc1` [cpd 21, 2-{[(1S)-1-(4-chlorophenyl)ethyl]amino}-8-(4-methoxybenzyl)pyrido[2,3-d]pyrimidin-7(8H)-one], the IC50 in experiment [1] amounted to 2490 nM; on IDH1^R132C, 586 nM.

Turning to `CC(C)C(=O)N1CCN(Cc2ccc([C@H](C)Nc3ncc4ccc(=O)n(CC(C)(C)C)c4n3)cc2)CC1` [cpd 157, 8-(2,2-dimethylpropyl)-2-{[(1S)-1-(4-{[4-(2-methylpropanoyl)piperazin-1-yl]methyl}phenyl)ethyl]amino}-pyrido [2,3-d]pyrimidin-7(8H)-one], the IC50 in experiment [1] came out at 162 nM; at IDH1^R132C it was 51 nM.

Regarding `CC(Nc1ncc2ccc(=O)n(CCF)c2n1)c1ccc(CN2CCC(F)(F)CC2)cc1` (stereo not drawn) [cpd 100, 2-[(1-{4-[(4,4-difluoropiperidin-1-yl)methyl]phenyl}ethyl)amino]-8-(2-fluoroethyl)pyrido[2,3-d]pyrimidin-7(8H)-one], the IC50 in experiment [1] came out at 3060 nM; against IDH1^R132C it was 1590 nM.

In the case of `COC(=O)c1ccc([C@H](C)Nc2ncc3ccc(=O)n(CC4(C)COC4)c3n2)cc1` [cpd 10, methyl 4-[(1S)-1-({8-[(3-methyloxetan-3-yl)methyl]-7-oxo-pyrido[2,3-d]pyrimidin-2-yl}amino)ethyl]benzoate], the IC50 in experiment [1] worked out at 3850 nM; against IDH1^R132C, 1920 nM.

Consider `C[C@H](Nc1ncc2ccc(=O)n(CC(C)(C)C)c2n1)c1ccccc1` [cpd 40, 8-(2,2-dimethylpropyl)-2-{[(1S)-1-phenylethyl]amino}pyrido[2,3-d]pyrimidin-7(8H)-one], for which the figures for the IC50 (in experiment [1]; on IDH1^R132C) were 160 nM and 71 nM, respectively.

As to `CCCC(C)(CO)Cn1c(=O)ccc2cnc(N[C@@H](C)c3ccc(CN4CCC(F)(F)CC4)cc3)nc21` (stereo partly drawn) [cpd 120, 2-{[(1S)-1-{4-[(4,4-difluoropiperidin-1-yl)methyl]phenyl}ethyl]amino}-8-[2-(hydroxymethyl)-2-methylpentyl]pyrido[2,3-d]pyrimidin-7(8H)-one], the IC50 was determined as 221 nM in experiment [1] and 108 nM against IDH1^R132C.

In the case of `C[C@H](Nc1ncc2ccc(=O)n(CC(C)(C)C)c2n1)c1ccc(-c2ccncc2)cc1` [cpd 131, 8-(2,2-dimethylpropyl)-2-({(1S)-1-[4-(pyridin-4-yl)phenyl]ethyl}amino)pyrido[2,3-d]pyrimidin-7(8H)-one], the IC50 in experiment [1] was 284 nM; against IDH1^R132C, 170 nM.

For `C[C@H](Nc1ncc2ccc(=O)n(Cc3ccc(F)cc3C(F)(F)F)c2n1)c1ccc(CN2CCC(F)(F)CC2)cc1` [cpd 115, 2-{[(1S)-1-{4-[(4,4-difluoropiperidin-1-yl)methyl]phenyl}ethyl]amino}-8-[4-fluoro-2-(trifluoromethyl)benzyl]pyrido[2,3-d]pyrimidin-7(8H)-one], the results for the IC50 (in experiment [1]; against IDH1^R132C) were 672 nM and 825 nM, respectively.

`C[C@H](Nc1ncc2ccc(=O)n(CC(C)(C)C(=O)O)c2n1)c1ccc2ccccc2c1` [cpd 121, 2,2-dimethyl-3-[2-{[(1S)-1-(naphthalen-2-yl)ethyl]amino}-7-oxopyrido[2,3-d]pyrimidin-8(7H)-yl]propanoic acid]: the IC50 in experiment [1] came out at 3900 nM; against IDH1^R132C, 1630 nM.

As to `CC(C)(C)Cn1c(=O)ccc2cnc(NC3(c4ccccc4)CC3)nc21` [cpd 42, 8-(2,2-dimethylpropyl)-2-[(1-phenylcyclopropyl)amino]pyrido[2,3-d]pyrimidin-7(8H)-one], the values for the IC50 (in experiment [1]; on IDH1^R132C) were 1380 nM and 951 nM, respectively.

Consider `Cc1nc(N[C@@H](C)c2ccc(CN3CCC(F)(F)CC3)cc2)nc2c1ccc(=O)n2CC(C)C` [cpd 118], for which the IC50 in experiment [1] came out at 1300 nM; against IDH1^R132C, 923 nM.

With `C=CC(=O)N1CCN(Cc2ccc([C@H](C)Nc3nc(OCC)c4ccc(=O)n(CC(C)(C)C)c4n3)cc2)CC1` [cpd 201, 2-{[(1S)-1-{4-[(4-acryloylpiperazin-1-yl)methyl]phenyl}ethyl]amino}-8-(2,2-dimethylpropyl)-4-ethoxypyrido[2,3-d]pyrimidin-7(8H)-one], the IC50 in experiment [1] is 420 nM; on IDH1^R132C, 173 nM.

Turning to `C[C@H](Nc1ncc2ccc(=O)n(CC3(C)COC3)c2n1)c1ccc2ccccc2c1` [cpd 45, 8-[(3-methyloxetan-3-yl)methyl]-2-{[(1S)-1-(naphthalen-2-yl)ethyl]amino}pyrido[2,3-d]pyrimidin-7(8H)-one], the values for the IC50 (in experiment [1]; on IDH1^R132C) were 554 nM and 206 nM, respectively.

For `COc1ccc([C@H](C)Nc2ncc3ccc(=O)n(CC(C)(C)C)c3n2)cc1` [cpd 33, 8-(2,2-dimethylpropyl)-2-{[(1S)-1-(4-methoxyphenyl)ethyl]amino}pyrido[2,3-d]pyrimidin-7(8H)-one], the results for the IC50 (in experiment [1]; on IDH1^R132C) were 461 nM and 190 nM, respectively.

As to `C[C@H](Nc1ncc2ccc(=O)n(Cc3ccc(F)cc3F)c2n1)c1ccc(Cl)cc1` [cpd 25, 2-{[(1S)-1-(4-chlorophenyl)ethyl]amino}-8-(2,4-difluorobenzyl)pyrido[2,3-d]pyrimidin-7(8H)-one], the values for the IC50 (in experiment [1]; on IDH1^R132C) were 1940 nM and 524 nM, respectively.

`COC(=O)c1ccc([C@H](C)Nc2ncc3ccc(=O)n(CC(C)C)c3n2)cc1` [cpd 5, methyl 4-[(1S)-1-{[8-(2-methylpropyl)-7-oxo-pyrido[2,3-d]pyrimidin-2-yl]amino}ethyl]benzoate]: the IC50 in experiment [1] amounted to 1130 nM; against IDH1^R132C, 450 nM.

For the molecule `C[C@H](Nc1ncc2ccc(=O)n(CC(C)(C)C)c2n1)c1ccc(CO)c(F)c1` [cpd 90, 8-(2,2-dimethylpropyl)-2-({(1S)-1-[3-fluoro-4-(hydroxymethyl)phenyl]ethyl}amino)pyrido[2,3-d]pyrimidin-7(8H)-one], the IC50 in experiment [1] was determined as 697 nM; at IDH1^R132C, 391 nM.

With `CC(Nc1ncc2ccc(=O)n(CC(C)(C)C)c2n1)c1ccc(C(=O)NC2CCC(F)(F)CC2)c(F)c1` (stereo not drawn) [cpd 84, N-(4,4-difluorocyclohexyl)-4-(1-{[8-(2,2-dimethylpropyl)-7-oxo-pyrido[2,3-d]pyrimidin-2-yl]amino}ethyl)-2-fluorobenzamide], the IC50 is 190 nM in experiment [1] and 150 nM against IDH1^R132C.

For the molecule `COC(=O)c1ccc([C@H](C)Nc2ncc3ccc(=O)n(C(C)C)c3n2)cc1` [cpd 9, methyl 4-[(1S)-1-{[7-oxo-8-(propan-2-yl)-pyrido[2,3-d]pyrimidin-2-yl]amino}ethyl]benzoate], the IC50 came out at 1530 nM in experiment [1] and 604 nM against IDH1^R132C.

On to `CC(C#N)n1c(=O)ccc2cnc(N[C@@H](C)c3ccc(CN4CCCC(F)(F)C4)cc3)nc21` (stereo partly drawn) [cpd 64, 2-[2-{[(1S)-1-{4-[(3,3-difluoropiperidin-1-yl)methyl]phenyl}ethyl]amino}-7-oxopyrido[2,3-d]pyrimidin-8(7H)-yl]propanenitrile], for which the IC50 in experiment [1] is 210 nM; against IDH1^R132C, 133 nM.

For the molecule `CCCn1c(=O)ccc2cnc(N[C@@H](C)c3ccc(CN4CCCCCC4)cc3)nc21` [cpd 102, 2-({(1S)-1-[4-(azepan-1-ylmethyl)phenyl]ethyl}amino)-8-propylpyrido[2,3-d]pyrimidin-7(8H)-one], the IC50 in experiment [1] was found to be 4320 nM; against IDH1^R132C, 2800 nM.

For `CC(C)[C@H](C)n1c(=O)ccc2cnc(N[C@@H](C)c3ccc(C4=CCN(C(=O)OC(C)(C)C)CC4)cn3)nc21` [cpd 193, tert-butyl 6-[(1S)-1-({8-[(2S)-3-methylbutan-2-yl]-7-oxo-7,8-dihydropyrido[2,3-d]pyrimidin-2-yl}amino)ethyl]-3′,6′-dihydro-3,4′-bipyridine-1′(2′H)-carboxylate], the results for the IC50 (in experiment [1]; at IDH1^R132C) were 126 nM and 89 nM, respectively.
